According to PMC6225302, “Depsidone Derivatives and a Cyclopeptide Produced by Marine Fungus Aspergillus unguis under Chemical Induction and by Its Plasma Induced Mutant” (Molecules : A Journal of Synthetic Chemistry and Natural …, 2018):

System: brine shrimp (Artemia salina) larva
Assay: Brine shrimp larva lethality test
Format: in vivo
Details: brine shrimp larvae, 24 h at 28 °C; read-out: Larvicidal Activity (LC50)
Experimental: Compounds 1‒10 were evaluated for larvicidality using the brine shrimp (Artemia salina) larva lethality test. 0.15 g of frozen eggs of brine shrimp larva (purchased from Aijia Aquarium Co., Zhanjiang, China) were activated at room temperature for 12 h. After activation, eggs were added to 1 L of artificial seawater (3% sea salt), ventilated with air for 420 mL/min, then kept at a brightness at 1000 lux and incubated at 28 °C for 24 h. After incubation, the larvae were induced to the top of the separating funnel by phototaxis, and the dead ones on bottom were discharged. Then, in each well of the 96-well plate, 1 μL of test compounds (in DMSO) with different concentrations and 99 μL of seawater containing 20‒30 live larvae were added. After incubation under light at 28 °C for 24 h, recorded the numbers of dead larvae. Finally, 10 μL of the Lucus reagent were added into each well and the total number of brine shrimp larva in the well were counted. DMSO and Hg(NO3)2 were used as blank control and positive control, respectively. Lethality rate (%)=(lethality of treatment−lethality of blank control)/survival rate of blank control×100%
The brine shrimp larva LC50 value is the concentration required to kill 50% of the larvae. Likewise, the LC50 was calculated using Origin 8.0 plotting and cubic polynomial regression.

With `O=[N+]([O-])[O-].O=[N+]([O-])[O-].[Hg+2]` [Hg(NO3)2, reference compound] the LC50 was 77 µM.
